The record followed here is US20070248597A1, “Methods of decreasing vascular calcification using IL-1 inhibitors” (priority 2005, published 2007).

Common to all, as to format: in vivo, rat
One experiment deals with 5/6 nx uremic rats. Description: Aortic calcification (Von Kossa, pathologist score) in 5/6-nephrectomy model of CKD and secondary HPT. The conditions noted are these: for aortic calcification severity (Von Kossa calcification score): 5/6Nx male SD rats, uremia established 8 weeks, treatment week 4, Fc-IL-1ra 100 mg/kg/day s.c., calcitriol 30 ng. From the text: We administered the IL-1 receptor antagonist Fc-IL-1ra, calcitriol, the combination of Fc-IL-1ra+calcitriol) or their corresponding vehicles to a rodent animal model of chronic kidney disease (CKD) and secondary hyperparathyroidism (SHPT) induced by subtotal nephrectomy (5/6Nx). The experimental paradigm is shown in FIG. 5, with the treatment groups set out in Table 2 below.
Aortas were removed at treatment week 4 (trt wk4), fixed and stained for mineralization (Von Kossa) and the severity determined and scored by a pathologist blinded to the treatments (Calcification Scores: 0=no calcification; 1=minimal; 2=mild; 3=moderate; 4=marked; 5=severe).

Experiment [1] concerns adenine-induced CKD/SHPT rats. Description: Parathyroid gland size in adenine model of CKD/SHPT. The conditions noted are these: FIG. 3A, p=0.009 vs A5S vehicle (n=13 vs n=8).
In experiment [2] the test system is adenine-induced CKD/SHPT rats. Description: Blood chemistry (BUN, creatinine, PTH) in adenine model of CKD/SHPT. The protocol: (§1) Adenine, included as a dietary supplement (0.75%), was fed to adult, male Sprague-Dawley rats. Blood for chemistry analyses (total serum calcium, phosphorous, blood urea nitrogen [BUN], creatinine, PTH) was collected before and again on drug treatment days 0 (pretreatment) and 21 from the retro-orbital sinus of anesthetized rats. Blood (0.5 ml) was collected for PTH levels into SST (clot activator) brand blood tubes and allowed to clot. Serum was removed and stored at −70° C. until assayed. PTH levels were quantified according to the vendor's instructions using rat PTH (1-34) immunoradiometric assay kit (Immutopics, San Clemente, Calif.). Calcium and phosphorous were measured using a blood chemistry analyzer (AU 400; Olympus, Melville, N.Y.).

Experiment [3] concerns adenine-induced CKD/SHPT rats. Nature of the experiment: Aortic vascular calcification (bone mineral density of isolated aortas, Dxa scanner) in adenine model of CKD/SHPT. The protocol: as §1
Vascular calcification was assessed by quantifying the bone mineral density from fixed (formalin, PBS), isolated aortas using a Dxa scanner (Piximus densitomer, GE Healthcare).

Consider “Fc-IL-1ra: molecule having the sequence shown in FIG. 4 (SEQ ID NO: 1); fusion protein comprising IL-1ra; IL-1 receptor antagonist”, for which, in the experiment on 5/6 nx uremic rats, the “aortic calcification severity (Von Kossa calcification score)” value is reported as “did not cause vascular calcification”. The “calcitriol (Vitamin D3)-induced aortic vascular calcification” value in the experiment on 5/6 nx uremic rats (5/6Nx rats, Fc-IL-1ra 100 mg/kg/day s.c. + calcitriol 30 ng, week 4, FIG. 6) is reported as “attenuated”. For the same compound, the “size of the parathyroid gland” value in experiment [1] is reported as “reduced”. Also, in experiment [2], the BUN entry is on record as “did not affect” and the creatinine levels result is listed as “did not affect”. In addition, the “serum PTH levels” value in experiment [2] (FIG. 3B, p=0.028 vs A5S vehicle (n=7 vs n=4)) was “decreased”. Besides, in experiment [3] (adenine diet 0.75%, male Sprague-Dawley rats, Fc-IL-1ra n=7 vs A5S vehicle n=4, p=0.005 unpaired t-test), the “bone mineral density (aortic calcification)” value is on record as 0 g/cm2. The “development of aortic vascular calcification (bone mineral density content of the aorta)” value in experiment [3] (adenine model, FIG. 2) is recorded as “prevented”. Also, the “animals with no calcification” value in experiment [3] (adenine model, Fc-IL-1ra-treated animals) is “seven of seven”.
In the case of `C=C1/C(=C\C=C2/CCC[C@]3(C)[C@@H]([C@H](C)CCCC(C)(C)O)CC[C@@H]23)C[C@@H](O)C[C@@H]1O` [calcitriol, 1α, 25-dihydroxycholecalciferol, reference compound], the “aortic calcification severity (Von Kossa calcification score)” value in the experiment on 5/6 nx uremic rats is “marked to severe”. Moreover, the “incidence of severe calcification” value in the experiment with 5/6 nx uremic rats (5/6Nx uremic rats, treatment week 4, n=8 evaluated) is recorded as 50%.
